From patent US20170128390A1, “DISINFECTANT AND ANTIMICROBIAL COMPOSITIONS, IN PARTICULAR FOR THE VETERINARY FIELD” (I.C.F. S.R.L., priority 2014, published 2017)

Experiments:
[1] = system: Pseudomonas aeruginosa ATCC 27853; test: Time-killing assay (bactericidal activity of new formulations), CFU count; assay type: cell-based; details: CLX 0.000106%, AMP 2041 0.5 μg/ml, TRIS-EDTA 0.1% alone or 0.476%-0.126% in triple combination; for Δ (change of CFU count) at T0 / CFU count at T0: T0 = 0 min; for CFU count at T0 / CFU count at T0.5 / CFU count at T1 / CFU count at T3 / CFU count at T5 / CFU count at T10: CC 600; for Δ (change of CFU count) at T0.5 / CFU count at T0.5: T0.5 = 0.5 min; for Δ (change of CFU count) at T1 / CFU count at T1: T1 = 1 min; for Δ (change of CFU count) at T3 / CFU count at T3: T3 (footnote: T2.5 = 2.5 min); for Δ (change of CFU count) at T5 / CFU count at T5: T5 = 5 min; for Δ (change of CFU count) at T10 / CFU count at T10: T10 = 10 min
Method: The tubes are vortexed and incubated at 37° C. with stirring at 225 rpm for 3-4 hours, until achieving a required degree of turbidity, greater than or equal to 0.5 of the Mc Farland scale. Thereafter, the bacterial suspension is centrifuged at 1000 rpm for 20 minutes. The resulting pellet of bacteria is resuspended in 10mM PB. The turbidity is adjusted with the same buffer solution and checked by measuring the absorbance of the suspension at the spectrophotometer. The absorbance is considered equal to 0.5 of the Mc Farland scale when the optical density at 600 nm is between 0:08-0:13. At this value, the bacterial suspension contains approximately 10^8UFC/ml. Two hundred microliters of the assessed and adjusted bacterial suspension are added to 19.8 ml of 10 mM PB to obtain a final dilution of 1:100. Then, within a thirty minutes, 0:05 ml of this suspension (10^6UFC/ml) are inoculated into each well of an ELISA plate to obtain a final concentration of bacteria of about 5×10^5UFC/ml. […] Thereafter, each sample is serially diluted in PBS (pH 7.4) and 50 μl are plated on LB agar and the plates incubated at 37° C. for 24 hours for the count of CFU. The sterility control (100 μl PBS in place of the bacterial suspension) and the control in the absence of the new formulation are set up. The test is also carried out in the presence of 0.3% and 3.0% (w/v) BSA to simulate a paraphysiological environment. All experiments were repeated in triplicate.

[2] = system: Staphylococcus aureus ATCC 25923; test: as above; assay type: cell-based; details: CLX 0.000106%, AMP 2041 0.5 μg/ml; for Δ (change of CFU count) at T0 / CFU count at T0: T0 = 0 min; for CFU count at T0 / CFU count at T0.5 / CFU count at T1 / CFU count at T3 / CFU count at T5 / CFU count at T10: CC 600; for Δ (change of CFU count) at T0.5 / CFU count at T0.5: T0.5 = 0.5 min; for Δ (change of CFU count) at T1 / CFU count at T1: T1 = 1 min; for Δ (change of CFU count) at T3 / CFU count at T3: T3 (footnote: T2.5 = 2.5 min); for Δ (change of CFU count) at T5 / CFU count at T5: T5 = 5 min; for Δ (change of CFU count) at T10 / CFU count at T10: T10 = 10 min
Method: For each strain of reference, three to five morphologically similar colonies are selected from blood agar plates and inoculated into tubes containing 6 ml of Brain Heart Infusion broth (DIFCO, USA).
The tubes are vortexed and incubated at 37° C. with stirring at 225 rpm for 3-4 hours, until achieving a required degree of turbidity, greater than or equal to 0.5 of the Mc Farland scale.
Thereafter, the bacterial suspension is centrifuged at 1000 rpm for 20 minutes. The resulting pellet of bacteria is resuspended in 10mM PB. The turbidity is adjusted with the same buffer solution and checked by measuring the absorbance of the suspension at the spectrophotometer. The absorbance is considered equal to 0.5 of the Mc Farland scale when the optical density at 600 nm is between 0:08-0:13. At this value, the bacterial suspension contains approximately 10^8UFC/ml. Two hundred microliters of the assessed and adjusted bacterial suspension are added to 19.8 ml of 10 mM PB to obtain a final dilution of 1:100. Then, within a thirty minutes, 0:05 ml of this suspension (10^6UFC/ml) are inoculated into each well of an ELISA plate to obtain a final concentration of bacteria of about 5×10^5UFC/ml.
The time-killing assay was carried out to evaluate the bactericidal effects of the new formulations, using a modified quantitative test of the European standards EN1040 and EN1276. 100 μl of the bacterial suspension are added to 900 μl of the new formulation and aliquots of 50 μl of the mixture are subjected to assay at 0.5, 1, 2.5, 5, 10, 20, 30, 60, 90 and 120 min., respectively. 450 μl of neutralizing solution are added to each sample and left to act at room temperature for 3 minutes. Thereafter, each sample is serially diluted in PBS (pH 7.4) and 50 μl are plated on LB agar and the plates incubated at 37° C. for 24 hours for the count of CFU. The sterility control (100 μl PBS in place of the bacterial suspension) and the control in the absence of the new formulation are set up. The test is also carried out in the presence of 0.3% and 3.0% (w/v) BSA to simulate a paraphysiological environment. All experiments were repeated in triplicate.

| Compound | Δ (change of CFU count) at T0 [1] | CFU count at T0 [1] | Δ (change of CFU count) at T0.5 [1] | CFU count at T0.5 [1] | Δ (change of CFU count) at T1 [1] | CFU count at T1 [1] | Δ (change of CFU count) at T3 [1] | CFU count at T3 [1] | Δ (change of CFU count) at T5 [1] | CFU count at T5 [1] | Δ (change of CFU count) at T10 [1] | CFU count at T10 [1] | Δ (change of CFU count) at T0 [2] | CFU count at T0 [2] | Δ (change of CFU count) at T0.5 [2] | CFU count at T0.5 [2] | Δ (change of CFU count) at T1 [2] | CFU count at T1 [2] | Δ (change of CFU count) at T3 [2] | CFU count at T3 [2] | further results |
| --- | --- | --- | --- | --- | --- | --- | --- | --- | --- | --- | --- | --- | --- | --- | --- | --- | --- | --- | --- | --- | --- |
| AMP 2041: peptide named AMP2041 (SEQ.ID. No.1), synthesized by SelleckChem (HKCAKIKWRGVHVKYCA) | Δ = 0% | 600 | Δ = 0% | 600 | Δ = 0% | 600 | Δ = 0% | 600 | Δ = 0% | 600 | Δ = 0% | 600 | Δ = 0% | 600 | Δ = 0% | 600 | Δ = 0% | 600 | Δ = 0% | 600 | Δ (change of CFU count) at T5 [2]: Δ = 0%; CFU count at T5 [2]: 600; Δ (change of CFU count) at T10 [2]: Δ = 0%; CFU count at T10 [2]: 600 |
| [H]/N=C(\N/C(=N/[H])NCCCCCCNC(=N)NC(=N)Nc1ccc(Cl)cc1)Nc1ccc(Cl)cc1 [CLX, chlorhexidine] | Δ = 0% | 600 | Δ = 0% | 600 | Δ = 0% | 600 | Δ = 0% | 600 | Δ = 0% | 600 | Δ = 0% | 600 | Δ = 0% | 600 | Δ = 0% | 600 | Δ = 0% | 600 | Δ = 0% | 600 | Δ (change of CFU count) at T5 [2]: Δ = 0%; CFU count at T5 [2]: 600; Δ (change of CFU count) at T10 [2]: Δ = 0%; CFU count at T10 [2]: 600 |
